Source: PubChem BioAssay AID179 (DTP/NCI, 2004)
Where “and” joins values, the source holds several entries; their conditions need not be identical. Equal values may be shown once. Calls of active or inactive are those of the source.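 The calls were made as follows: active = compounds giving half or more protection of infected cells from virus-caused growth loss, again on retest; inactive = the rest.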

System: CEM cells HIV-1 protection, formazan growth assay
Test: NCI AIDS Antiviral Assay
Conditions: for IC50: measured here: growth of uninfected CEM cells
Method in brief: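 Human CEM cells, uninfected and HIV-1-infected, exposed to five drug concentrations; growth measured by soluble formazan assay and scored as percent protection from infection, with protecting compounds retested.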

Row | Structure (SMILES) | EC50 | IC50 | outcome
1 | Cn1ccoc1=Nc1ccc(Cl)c(Cl)c1 | > 200 µM | > 200 µM | –
2 | Cc1cn(C2C=CC(O)CC2)c(=O)[nH]c1=O (stereo not drawn) | > 589 µM | > 589 µM | –
3 | C=C1C=CN(C(C)=O)C(OC(C)=O)C1SC(C)(C)C (stereo not drawn) | > 200 µM | 57.5 µM | –
4 | O=c1[nH]c2ccccc2c(=O)c2ccccc12 | > 32.4 µM | > 32.4 µM | –
5 | CCN(CC)CC(C(=O)Nc1c(C)cccc1C)/C(C)=N\NC(=O)c1ccncc1 (stereo not drawn) | > 33.1 µM | > 33.1 µM | –
6 | CNC(=O)OC(COC)CN1CCN(c2ccccc2C)CC1 (stereo not drawn) | > 200 µM | > 200 µM | –
7 | COc1cc(C)c(Br)c2ccc(Br)c(O)c12 | > 200 µM | > 200 µM | –
8 | CCOC(=O)N1CC2(C(=O)OC)C=CC1C(C(=O)OC)C2 (stereo not drawn) | > 200 µM | > 200 µM | –
9 | CN(CCN1C(=O)c2cccc3cccc(c23)C1=O)CCN1C(=O)c2cccc3cccc(c23)C1=O | > 26.3 µM | 9.12 µM | –
10 | CCSC1=N/C(=C\c2ccco2)C(Nc2ccc(C)cc2)=N1 | > 50.1 µM | > 50.1 µM | –
11 | O=C1C(=c2ccc(=C3C(=O)c4ccc([N+](=O)[O-])cc4[N+]3=O)cc2)N([O-])c2cc([N+](=O)[O-])ccc21 | > 11.5 µM | > 11.5 µM | –
12 | CN(CCO)c1nc2c(c(=O)[nH]1)CNCC2 | > 288 µM | > 288 µM | –
13 | CC(C)[C@H]1CO[C@@H]2O[C@H](C)C(C)C(=O)N21 (stereo partly drawn) | > 1170 µM | > 1170 µM | –
14 | Cc1cn(C2CC(O[Si](C)(C)C(C)(C)C)C(C/[N+]([O-])=N\Nc3ccc([N+](=O)[O-])cc3)O2)c(=O)[nH]c1=O (stereo not drawn) | > 200 µM | 3.31 µM | –
15 | Cc1cc(O)c(/C=N/C(=S)NCc2ccccc2)c(=O)o1 | > 200 µM | > 200 µM | –
16 | O=S(=O)(Nc1nnc2ccc3ccccc3n12)c1ccc(F)cc1S | > 200 µM | 110 µM | –
17 | O=C(NNC(c1ccccc1)C(F)(F)F)c1ccncc1 (stereo not drawn) | > 200 µM | > 200 µM | –
18 | COC(=O)N1CC2CC(=O)OCC2[C@@H]1CO (stereo partly drawn) | > 724 µM | > 724 µM | –
19 | CCc1cccc(C(C)CC)c1NC(=O)CC1C(=O)Nc2ccccc2S1(=O)=O (stereo not drawn) | > 12 µM | > 12 µM | –
20 | O=C(O)c1cc(O)c2c(c1)C([C@@H]1c3cccc(O)c3C(=O)c3c(O)cc(C(=O)O)cc31)c1cccc(O)c1C2=O (stereo partly drawn) | > 200 µM | 31.6 µM | –
21 | C[N+](C)=c1nc(N2CCOCC2)ss1 | – | – | inactive

Row | Structure (SMILES) | EC50 | IC50 | outcome
22 | c1ccc2c(c1)CCc1c(-c3noc4c3CCc3ccccc3-4)noc1-2 | > 148 µM | > 148 µM | –
23 | O=C(CC(=O)c1ccccc1O)c1ccccc1 | > 30.2 µM | > 30.2 µM | –
24 | Cc1nc(N)c(-c2ccccc2)s1 | > 135 µM | > 135 µM | –
25 | O=[N+]([O-])c1ccc2c(c1)Sc1ccccc1N2 | > 200 µM | 60.3 µM | –
26 | COC(=O)/C(=N/NC(N)=O)C(C(=O)C(=O)Nc1ccc(C)cc1)c1nc2ccc(C(=O)c3ccccc3)cc2[nH]c1=O (stereo not drawn) | > 33.1 µM | > 33.1 µM | –
27 | N.N.N.N.N.O=C([O-])C(=O)[O-].[Co+3].[O-][Cl+3]([O-])([O-])O.[O-][Cl+3]([O-])([O-])[O-] | – | – | inactive
28 | O=C1OCc2cccc3c2-c2c1cccc2C(=O)OC3 | – | – | inactive
29 | O=C(Nc1ccccc1)c1c(O)[nH]c(=O)[nH]c1=O | > 75.9 µM | 38.9 µM | –
30 | CC(=O)NNC(=S)/N=C/c1c(C)[nH]n(-c2ccccc2)c1=O | – | – | inactive
31 | CCOC(=O)Nc1ccc2nc(N3CCCCC3)sc2c1 | > 85.1 µM | 6.31 µM | –
32 | Cn1cnc([N+](=O)[O-])c1Sc1nc(N)nc2c1ncn2C1OC(CO)C(O)C1O (stereo not drawn) | > 200 µM | 0.309 µM | –
33 | NNC(=O)CC(=O)Nc1ccc(Cl)cc1 | > 200 µM | 112 µM | –
34 | O=C1c2cccc3cc([N+](=O)[O-])cc(c23)C(=O)N1O | > 200 µM | 12 µM | –
35 | CCOC(=O)c1cc2c(ccc3cc(C(=O)OCC)[nH]c32)[nH]1 | > 200 µM | > 200 µM | –
36 | NC(=O)C1C(=O)c2cccc3c2C1CCCC3 (stereo not drawn) | > 234 µM | 69.2 µM | –
37 | CC(=O)OCC1OC(Sc2nc(-c3ccc(C)cc3)c(C#N)c(=O)n2C2OC(COC(C)=O)C(OC(C)=O)C(OC(C)=O)C2OC(C)=O)C(OC(C)=O)C(OC(C)=O)C1OC(C)=O (stereo not drawn) | > 100 µM and 69.2 µM | > 100 µM | –
38 | Cc1ccc(S(=O)(=O)c2c(N)c3nccn3c3nc4ccccc4nc23)cc1 | > 25.7 µM | > 25.7 µM | –
39 | CN(C)c1ccc(/C=C(/C(=O)c2ccccc2)c2ccccc2)cc1 | > 15.8 µM | > 15.8 µM | –
40 | N#CCC(=O)N/N=C(\CCN1CCCC1)CC(c1ccccc1)c1c(O)c2ccccc2oc1=O (stereo not drawn) | > 97.7 µM | 55 µM | –
41 | CC(=O)O[C@@H]1CO[C@H]2O[C@H]3[C@@H](C(C=O)=C[C@H](O)[C@@H]4C5=C(C(C)C)CC[C@]5(C)CC[C@@]34C)[C@@]2(O)C1=O | > 0.575 µM | 0.0759 µM | –
